EP3263567A1, “CARBOXAMIDE-SUBSTITUTED PYRAZOLES AND TRI(HETERO)ARYL-PYRAZOLES FOR USE IN METHODS OF TREATING AND / OR PREVENTING CARDIOVASCULAR DISEASES AND / OR COMORBIDITIES THEREOF” (AiCuris Anti-infective Cures GmbH, priority 2016, dated 2018)

Molecular target: T1, human HCN4 currents (Homo sapiens, UniProt Q9Y3Q4)
T1 construct: CHO cells transiently expressing the HCN4 channel; expressed in transfected cells; host or cells: CHO (ATCC CCL-61), transiently transfected
T1 sequence (Q9Y3Q4 1-1203): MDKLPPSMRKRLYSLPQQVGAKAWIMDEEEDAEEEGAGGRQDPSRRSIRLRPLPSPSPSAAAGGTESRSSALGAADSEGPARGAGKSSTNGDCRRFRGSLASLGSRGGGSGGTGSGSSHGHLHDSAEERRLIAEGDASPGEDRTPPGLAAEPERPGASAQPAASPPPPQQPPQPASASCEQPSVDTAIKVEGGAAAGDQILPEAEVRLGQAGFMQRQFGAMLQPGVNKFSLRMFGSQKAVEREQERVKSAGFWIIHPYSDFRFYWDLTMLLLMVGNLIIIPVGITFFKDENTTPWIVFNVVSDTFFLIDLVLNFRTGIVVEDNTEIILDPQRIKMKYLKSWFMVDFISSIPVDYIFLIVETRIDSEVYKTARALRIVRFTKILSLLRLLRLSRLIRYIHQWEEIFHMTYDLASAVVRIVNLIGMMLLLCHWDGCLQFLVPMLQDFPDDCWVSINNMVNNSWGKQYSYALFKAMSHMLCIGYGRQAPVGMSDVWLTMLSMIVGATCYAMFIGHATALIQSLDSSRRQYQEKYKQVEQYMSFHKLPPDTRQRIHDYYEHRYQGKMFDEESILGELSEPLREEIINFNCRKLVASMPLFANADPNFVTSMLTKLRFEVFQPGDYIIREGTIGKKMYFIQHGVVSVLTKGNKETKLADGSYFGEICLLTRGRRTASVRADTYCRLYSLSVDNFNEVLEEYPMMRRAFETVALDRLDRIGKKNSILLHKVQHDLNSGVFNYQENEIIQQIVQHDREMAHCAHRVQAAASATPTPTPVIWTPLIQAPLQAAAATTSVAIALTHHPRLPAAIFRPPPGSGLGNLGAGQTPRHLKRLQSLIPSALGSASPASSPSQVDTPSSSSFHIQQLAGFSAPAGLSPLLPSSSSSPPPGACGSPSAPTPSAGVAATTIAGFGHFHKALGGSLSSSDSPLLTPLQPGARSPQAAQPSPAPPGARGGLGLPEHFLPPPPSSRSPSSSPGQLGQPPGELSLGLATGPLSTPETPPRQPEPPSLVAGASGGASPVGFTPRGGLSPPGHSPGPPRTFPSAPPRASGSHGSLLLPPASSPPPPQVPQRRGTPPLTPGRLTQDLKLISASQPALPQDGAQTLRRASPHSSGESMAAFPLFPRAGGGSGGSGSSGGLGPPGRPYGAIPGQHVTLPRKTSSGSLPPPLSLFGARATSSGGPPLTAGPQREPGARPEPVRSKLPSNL
Assay: Whole-cell patch-clamp, HCN4 steady state currents in transiently transfected CHO cells
Type: cell-based
Conditions: CHO cells transiently expressing HCN4, steady state current at -120 mV, n=3; read-out: IC50 (inhibition of HCN4 currents)
Description: The following six compounds in accordance with the invention: • Compound A: [drawing 81] i.e. 4-[5-[3-Chloro-5-(trifluoromethoxy) phenyl]-1-(pyridin-3-yl)-1H-pyrazol-3-yl]-5,6-dihydro-7H-pyrrolo[3,4-d]pyrimidin-7-one, • Compound B: [drawing 82] i.e. 4-[5-[3-Chloro-5-(trifluoromethoxy) phenyl]-1-(pyridin-3-yl)-1H-pyrazol-3-yl]-2,3-dihydro-1H-pyrrolo[3,4-c] pyridin-1-one, • Compound C: [drawing 83] i.e. 4-[5-[3-Chloro-5-(trifluoromethoxy) phenyl]-1-(pyridin-3-yl)-1H-pyrazol-3-yl]-5,6-dihydro-2-methyl-7H-pyrrolo[3, 4-d] pyrimidin-7-one, • Compound D: [drawing 84] i.e. 3-Amino-4-[5-[3-chloro-5-(trifluoromethoxy) phenyl]-1-(pyridin-3-yl)-1H-pyrazol-3-yl-carbonyl]-1,5-dihydro-2H-pyrrol-2-one, • Compound E: [drawing 85] i.e. 1-[[5-[3-Chloro-5-(trifluoromethoxy) phenyl]-1-(pyridin-3-yl)-1H-pyrazol-3-yl]carbonyl]-imidazolidin-4-one, • Compound F: [drawing 86] i.e. 4-[5-[3-Chloro-5-(trifluoromethoxy) phenyl]-1-(3-cyano-4-fluoro-phenyl)-1H-pyrazol-3-yl]-5,6-dihydro-7H-pyrrolo[3,4-d]pyrimidin-7-one, were tested on their effects on human HCN4 currents recorded from transiently transfected CHO cells, in direct comparison to the reference compounds described below: • Ivabradine: [drawing 87] i.e. ((S)-3-{3-[([3,4-Dimethoxy-bicyclo [4.2.0]octa-1,3,5-trien-7-yl]methyl)methylamino]propyl}-1,3,4,5-tetrahydro-7,8-dimethoxy-2H-3-benzazepin-2-on), • Compound X: [drawing 88] i.e. 1-[[1-(3-Chloro-4-fluorophenyl)-5-(3-chloro-5-fluorophenyl)-1 H-pyrazol-3-yl]carbonyl]-imidazolidin-4-one, • Compound Y: [drawing 89] i.e. N-(2-Amino-2-oxoethyl)-1-(3-chloro-4-fluorophenyl)-5-(3-chloro-5-fluorophenyl)-1H-pyrazole-3-carboxamide.
The pyrazole compounds X and Y as depicted above, and having structural similarities to the compounds of general formula (I) of the invention, were also tested to investigate whether the pure If current inhibitory effect of the compounds of the invention also extend to structurally closely related compounds.
Dependent on their solubility in the assay buffer, the compounds were tested first at one concentration of 10 µM (compound A, compound Y, compound X, compound B, compound E, compound F and ivabradine) or 1 µM for (compound C and D). If the current blocking of HCN4 at this concentration was higher than 50% the compounds were tested again at five concentrations of a half-logarithmic dilution series starting with either 10 µM or 1 µM as mentioned above (meaning 0.1 µM, 0.3 µM, 1 µM, 3 µM, and 10 µM or 0.01 µM, 0.03 µM 0.1 µM, 0.3 µM and 1 µM).
Test system: CHO cells transiently expressing the HCN4 channel; NCBI Reference Sequence: NP005468.1 (HCN4 channel); Source CHO: ATCC, CCL-61 LGC Standards GmbH, Wesel, Germany were used.
In 35 mm culture dishes CHO cells were seeded at a density allowing single cells to be recorded on the dish holder of the microscope and continuously perfused (at approximately 1 mL/min) with the bath solution described above. All solutions applied to cells including the pipette solution were maintained at room temperature (19 °C - 30 °C). After formation of a Gigaohm seal between the patch electrodes and individual cells (pipette resistance range: 2.0 MΩ - 7.0 MΩ; seal resistance range: > 1 GΩ) the cell membrane across the pipette tip was ruptured to assure electrical access to the cell interior (whole-cell patch-configuration). As soon as a stable seal was established, steady state currents were measured upon the hyperpolarization to -120 mV (2000 ms) from a holding potential of -40 mV. This voltage protocol (as shown in the scheme below) did run 5 times for control conditions and at least ten times for each test concentration. Pulse intervals were 20 s (0.05 Hz). If current amplitude was judged to be too low for measurement, another cell was recorded.
Once control recordings have been accomplished, cells were continuously perfused with bath solution containing the tested compounds as detailed above, 0.1 % DMSO or 100 µM ZD7288. […]

## O=C1NCc2c1ncnc2-c1cc(-c2cc(Cl)cc(OC(F)(F)F)c2)n(-c2cccnc2)n1 [Compound A, 4-[5-[3-Chloro-5-(trifluoromethoxy)phenyl]-1-(pyridin-3-yl)-1H-pyrazol-3-yl]-5,6-dihydro-7H-pyrrolo[3,4-d]pyrimidin-7-one]
  IC50: 30 to 580 nM
